Source: patent US8222247B2, “Modulators of glucocorticoid receptor, AP-1, and/or NF-kappabeta activity and use thereof” (Bristol-Myers Squibb Company, priority 2006, dated 2012)
Where two headings read alike, the source gives them in different places.

System: AP-1 induced transcriptional activity
Experiment: Cellular Transrepressional Assay (AP-1 luciferase reporter in A549 cell, PMA activated)
Format: cell-based
Details: pAP-1-Luc; for Emax: read-out: AP-1 Max % inh (Cellular Transrepression Assay); for EC50: 10 ng/ml PMA, 7 hours, read-out: AP-1 EC50, nM (Cellular Transrepression Assay)
Method: Cellular Transrepressional Assay
To measure the ability of test molecules to inhibit AP-1 induced transcriptional activity we utilized an A549 cell which was stably transfected with a plasmid containing 7×AP-1 DNA binding sites (pAP-1-Luc plasmid, Stratagene Co. La Jolla, Calif.) followed by the gene for luciferase. Cells were activated with 10 ng/ml of phorbol myristic acid (PMA) plus or minus test molecules for 7 hours. After 7 hours a luciferase reagent was added to measure luciferase enzymatic activity in the cell. After a 10 minute incubation of luciferase reagent with cells, luminescence was measured in a TopCount luminescence counter. Repression of AP-1 activity was calculated as the percentage decrease in the signal induced by PMA alone. Test molecules were analyzed in the concentration range from 0.1 nM to 40 μM. EC50s were determined by using standard curve fitting methods such as Excel fit (Microsoft Co.). An EC50 is the test molecule concentration at which there is a 50% repression of the maximal inhibition of transcription, i.e. a 50% reduction of AP-1 activity.

[1] = Homo sapiens, A549, 7 h, maximum inhibition, PMA

CC(C)(C(=O)Nc1nncs1)C(c1ccccc1)c1ccc(N2CCOCC2)nc1 (stereo not drawn) [Example 13, 2,2-dimethyl-3-(6-(4-morpholinyl)-3-pyridinyl)-3-phenyl-N-1,3,4-thiadiazol-2-ylpropanamide]
Emax [1]: 42.2%
EC50 (Homo sapiens, A549, 7 h): 245 nM

CC(C)(C(=O)Nc1nccs1)C(c1ccccc1)c1ccc(N2CCOCC2)nc1 (stereo not drawn) [Example 14, 2,2-dimethyl-3-(6-(4-morpholinyl)-3-pyridinyl)-3-phenyl-N-1,3-thiazol-2-ylpropanamide]
Emax [1]: 46%
EC50 (Homo sapiens, A549, 7 h): 62.9 nM

COc1ccc(-c2ccc(C(c3ccccc3)C(C)(C)C(=O)Nc3nccs3)cn2)cc1 (stereo not drawn) [Example 26, 3-(6-(4-methoxyphenyl)-3-pyridinyl)-2,2-dimethyl-3-phenyl-N-1,3-thiazol-2-ylpropanamide]
Emax [1]: 41.4%
EC50 (Homo sapiens, A549, 7 h): 316 nM

CCCc1ccc(-c2ccc(C(c3ccccc3)C(C)(C)C(=O)Nc3nncs3)cn2)cc1 (stereo not drawn) [Example 30, 2,2-dimethyl-3-phenyl-3-(6-(4-propylphenyl)-3-pyridinyl)-N-1,3,4-thiadiazol-2-ylpropanamide]
Emax [1]: 39.4%
EC50 (Homo sapiens, A549, 7 h): 49 nM

CC(C)Cc1ccc(-c2ccc(C(c3ccccc3)C(C)(C)C(=O)Nc3nncs3)cn2)cc1 (stereo not drawn) [Example 31, 3-(6-(4-isobutylphenyl)-3-pyridinyl)-2,2-dimethyl-3-phenyl-N-1,3,4-thiadiazol-2-ylpropanamide]
Emax [1]: 46.8%
EC50 (Homo sapiens, A549, 7 h): 21.5 nM

CN(C)C(=O)c1ccc(-c2ccc(C(c3ccccc3)C(C)(C)C(=O)Nc3nncs3)cn2)cc1 (stereo not drawn) [Example 32, 4-(5-(2,2-dimethyl-3-oxo-1-phenyl-3-(1,3,4-thiadiazol-2-ylamino)propyl)-2-pyridinyl)-N,N-dimethylbenzamide]
Emax [1]: 43.1%
EC50 (Homo sapiens, A549, 7 h): 73.9 nM

CC(C)Oc1ccc(-c2ccc(C(c3ccccc3)C(C)(C)C(=O)Nc3nncs3)cn2)cc1 (stereo not drawn) [Example 33, 3-(6-(4-isopropoxyphenyl)-3-pyridinyl)-2,2-dimethyl-3-phenyl-N-1,3,4-thiadiazol-2-ylpropanamide]
Emax [1]: 37.7%
EC50 (Homo sapiens, A549, 7 h): 24 nM

CC(C)Oc1ccc(-c2ccc(C(c3cccc(F)c3)C(C)(C)C(=O)Nc3nncs3)s2)cc1 (stereo not drawn) [Example 38, 3-(3-fluorophenyl)-3-(5-(4-isopropoxyphenyl)-2-thienyl)-2,2-dimethyl-N-1,3,4-thiadiazol-2-ylpropanamide]
Emax [1]: 23.1%
EC50 (Homo sapiens, A549, 7 h): 8.43 nM

CC(C)Cc1ccc(-c2ccc(C(c3cccc(F)c3)C(C)(C)C(=O)Nc3nncs3)s2)cc1 (stereo not drawn) [Example 39, 3-(3-fluorophenyl)-3-(5-(4-isobutylphenyl)-2-thienyl)-2,2-dimethyl-N-1,3,4-thiadiazol-2-ylpropanamide]
Emax [1]: 44.2%
EC50 (Homo sapiens, A549, 7 h): 18.8 nM

CCCc1ccc(-c2ccc(C(c3cccc(F)c3)C(C)(C)C(=O)Nc3nncs3)s2)cc1 (stereo not drawn) [Example 40, -(3-fluorophenyl)-2,2-dimethyl-3-(5-(4-propylphenyl)-2-thienyl)-N-1,3,4-thiadiazol-2-ylpropanamide]
AP-1 Max % inh (Cellular Transrepression Assay) (maximum inhibition, PMA): 37.26 % inh
EC50: 5.36 nM

CC(C)(C(=O)Nc1nncs1)C(c1cccc(F)c1)c1ccc(-c2ccc(C(=O)N3CCCC3)cc2)s1 (stereo not drawn) [Example 41, 3-(3-fluorophenyl)-2,2-dimethyl-3-(5-(4-(1-pyrrolidinylcarbonyl)phenyl)-2-thienyl)-N-1,3,4-thiadiazol-2-ylpropanamide]
Emax [1]: 65.5%
EC50 (Homo sapiens, A549, 7 h): 6.5 nM

CN(C)C(=O)c1ccc(-c2ccc(C(c3cccc(F)c3)C(C)(C)C(=O)Nc3nccs3)s2)cc1 (stereo not drawn) [Example 42, 4-(5-(1-(3-Fluorophenyl)-2,2-dimethyl-3-oxo-3-(1,3-thiazol-2-ylamino)propyl)-2-thienyl)-N,N-dimethylbenzamide]
Emax [1]: 42.9%
EC50 (Homo sapiens, A549, 7 h): 11.6 nM

CN(C)C(=O)c1ccc(-c2ccc(C(c3ccccc3)C(C)(C)C(=O)Nc3nncs3)s2)cc1Cl (stereo not drawn) [Example 43, 2-Chloro-4-(5-(2,2-dimethyl-3-oxo-1-phenyl-3-(1,3,4-thiadiazol-2-ylamino)propyl)-2-thienyl)-N,N-dimethylbenzamide]
Emax [1]: 38.4%
EC50: 10.7 nM

CC(C)(C(=O)Nc1nncs1)C(c1ccccc1)c1ccc(-c2ccc(C(=O)N3CCOCC3)cc2)s1 (stereo not drawn) [Example 45, 2,2-dimethyl-3-(5-(4-(4-morpholinylcarbonyl)phenyl)-2-thienyl)-3-phenyl-N-1,3,4-thiadiazol-2-ylpropanamide]
Emax [1]: 51%
EC50 (Homo sapiens, A549, 7 h): 5.88 nM

CC(C)(C(=O)Nc1nncs1)C(c1ccccc1)c1ccc(-c2ccc(C(=O)N3CCCC3)cc2)s1 (stereo not drawn) [Example 47, 2,2-dimethyl-3-phenyl-3-(5-(4-(1-pyrrolidinylcarbonyl)phenyl)-2-thienyl)-N-1,3,4-thiadiazol-2-ylpropanamide]
Emax [1]: 39.9%
EC50 (Homo sapiens, A549, 7 h): 3.71 nM

CCN(C)C(=O)c1ccc(-c2ccc(C(c3ccccc3)C(C)(C)C(=O)Nc3nncs3)s2)cc1 (stereo not drawn) [Example 50, 4-(5-(2,2-dimethyl-3-oxo-1-phenyl-3-(1,3,4-thiadiazol-2-ylamino)propyl)-2-thienyl)-N-ethyl-N-methylbenzamide]
Emax [1]: 39.6%
EC50 (Homo sapiens, A549, 7 h): 13.2 nM

CC(C)(C(=O)Nc1nncs1)C(c1ccccc1)c1ccc(-c2ccc(C(=O)N3CCOCC3)c(Cl)c2)s1 (stereo not drawn) [Example 52, 3-(5-(3-chloro-4-(4-morpholinylcarbonyl)phenyl)-2-thienyl)-2,2-dimethyl-3-phenyl-N-1,3,4-thiadiazol-2-ylpropanamide]
Emax [1]: 38.5%
EC50 (Homo sapiens, A549, 7 h): 12.1 nM

CN(C)C(=O)c1ccc(-c2ccc(C(c3ccccc3)C(C)(C)C(=O)Nc3nccs3)s2)cc1 (stereo not drawn) [Example 54, 4-(5-(2,2-Dimethyl-3-oxo-1-phenyl-3-(1,3-thiazol-2-ylamino)propyl)-2-thienyl)-N,N-dimethylbenzamide]
Emax [1]: 62.4%
EC50 (Homo sapiens, A549, 7 h): 9.45 nM

CC(C)(C(=O)Nc1nncs1)[C@@H](c1cccc(F)c1)c1ccc(-c2ccc(C(=O)N3CCOCC3)cc2)s1 [Example 64, (3R)-3-(3-Fluorophenyl)-2,2-dimethyl-3-(5-(4-(4-morpholinylcarbonyl)phenyl)-2-thienyl)-N-1,3,4-thiadiazol-2-ylpropanamide]
Emax [1]: 53.8%
EC50 (Homo sapiens, A549, 7 h): 3.04 nM

CN(C)C(=O)c1ccc(-c2ccc([C@H](c3cccc(F)c3)C(C)(C)C(=O)Nc3nncs3)s2)cc1 [Example 65, 4-(5-((1R)-1-(3-fluorophenyl)-2,2-dimethyl-3-oxo-3-(1,3,4-thiadiazol-2-ylamino)propyl)-2-thienyl)-N,N-dimethylbenzamide]
Emax [1]: 49.6%
EC50 (Homo sapiens, A549, 7 h): 7 nM

CN(C)C(=O)c1ccc(-c2ccc([C@H](c3cccc(F)c3)C(C)(C)C(=O)Nc3nncs3)s2)cc1Cl [Example 66, 2-chloro-4-(5-((1R)-1-(3-fluorophenyl)-2,2-dimethyl-3-oxo-3-(1,3,4-thiadiazol-2-ylamino)propyl)-2-thienyl)-N,N-dimethylbenzamide]
Emax [1]: 50.4%
EC50 (Homo sapiens, A549, 7 h): 5.16 nM

CC(C)(C(=O)Nc1nncs1)[C@@H](c1cccc(F)c1)c1ccc(-c2ccc(C(=O)N3CCOCC3)c(Cl)c2)s1 [Example 67, (3R)-3-(5-(3-chloro-4-(4-morpholinylcarbonyl)phenyl)-2-thienyl)-3-(3-fluorophenyl)-2,2-dimethyl-N-1,3,4-thiadiazol-2-ylpropanamide]
Emax [1]: 51.2%
EC50 (Homo sapiens, A549, 7 h): 12.8 nM

CCN(C)C(=O)c1ccc(-c2ccc([C@H](c3cccc(F)c3)C(C)(C)C(=O)Nc3nncs3)s2)cc1 [Example 68, N-ethyl-4-(5-((1R)-1-(3-fluorophenyl)-2,2-dimethyl-3-oxo-3-(1,3,4-thiadiazol-2-ylamino)propyl)-2-thienyl)-N-methylbenzamide]
Emax [1]: 49.4%
EC50 (Homo sapiens, A549, 7 h): 7.31 nM

CCN(CC)C(=O)c1ccc(-c2ccc([C@H](c3cccc(F)c3)C(C)(C)C(=O)Nc3nncs3)s2)cc1Cl [Example 70, 2-chloro-N,N-diethyl-4-(5-((1R)-1-(3-fluorophenyl)-2,2-dimethyl-3-oxo-3-(1,3,4-thiadiazol-2-ylamino)propyl)-2-thienyl)benzamide]
Emax [1]: 23%
EC50 (Homo sapiens, A549, 7 h): 833 nM

CC(C)(C(=O)Nc1nncs1)[C@@H](c1cccc(F)c1)c1ccc(-c2ccc(C(=O)N3CCC(F)(F)C3)cc2)s1 [Example 79, (3R)-3-(5-(4-((3,3-difluoro-1-pyrrolidinyl)carbonyl)phenyl)-2-thienyl)-3-(3-fluorophenyl)-2,2-dimethyl-N-1,3,4-thiadiazol-2-ylpropanamide]
Emax [1]: 42.6%
EC50 (Homo sapiens, A549, 7 h): 30.3 nM

CCN(C)C(=O)c1ccc(-c2ccc([C@H](c3cccc(F)c3)C(C)(C)C(=O)Nc3nncs3)s2)cc1F [Example 80, N-ethyl-2-fluoro-4-(5-((1R)-1-(3-fluorophenyl)-2,2-dimethyl-3-oxo-3-(1,3,4-thiadiazol-2-ylamino)propyl)-2-thienyl)-N-methylbenzamide]
Emax [1]: 33.6%
EC50 (Homo sapiens, A549, 7 h): 34.7 nM

CC(C)(C(=O)Nc1nncs1)[C@@H](c1cccc(F)c1)c1ccc(-c2ccc(C(=O)N3CCOCC3)c(F)c2)s1 [Example 83, (3R)-3-(5-(3-Fluoro-4-(4-morpholinylcarbonyl)phenyl)-2-thienyl)-3-(3-fluorophenyl)-2,2-dimethyl-N-1,3,4-thiadiazol-2-ylpropanamide]
Emax [1]: 32.7%
EC50 (Homo sapiens, A549, 7 h): 16.6 nM
